“Also recorded” adds a separate entry of the source. Where no end group is shown, it is not given here. [ ]: non-standard residue; d: D form. Ahx = NCCCCCC(=O)O
Key:
[1] = test system: live APC (spleenocytes) from NOD (I-A^g7), BALB/c, A.SW, A.BY mice; assay: Flow cytometry of biotinylated peptide binding to live APC (spleenocytes) of inbred mouse strains; details: for percentage of high-density binding cells: biotinylated peptide 50 μM, overnight; for preferential binding to NOD APC compared with other strains (BALB/c, A.SW, A.BY): biotinylated peptide, live spleenocytes, flow cytometry
Protocol: Specifically, it was verified that the peptide binds to MHC molecules on live APC. Briefly, spleen cell density-gradient fractions (from mice), or PBL, or APC lines (from humans) were incubated in round bottom 96-well plates with increasing concentrations of individual biotinylated peptides at 37° C., 5% CO2 for 16 hours. Following binding of the BPI to the APC, Avidin-FITC was incubated with the cells on ice for 30 minutes, followed by biotinylated anti-Avidin for 1 hour, then again with Avidin-FITC. For BPI titrations, increasing concentrations (0.1-100 μM) of the biotinylated derivatives in sterile 0.5% BSA-PBS were incubated with the APC for 16 hours as above. […] Three-color analyses used Cy-Chrome or PE-conjugated antibodies to known surface markers of APC that were commercially available. Avidin-FITC and biotinylated anti-Avidin detection of the bound peptide was as previously described in Murray et al., 24 Eur. J. Immunol. 2337-2344 (1994); Murray; 19 Immunology Today 157-163; and Schountz et al., 157 The Journal of Immunology 3893-3901 (1996). Slight modifications of this method were used to test peptide inhibition (i.e., peptide affinity) and co-capping to the MHC and ICAM molecules directly on the live APC surface. […] Unlabeled peptide was used in a competition assay to derive the relative affinity of the BPI for the APC and the ability of the BPI to crosslink the MHC and ICAM molecules on the APC was examined by cocapping ICAM with an anti-MHC mAb. Here, cells were incubated with the BPI. Next, an anti-MHC mAb was added. After 30 minutes at 37° C., the cells were transferred to ice and stained with PE-labeled anti-ICAM (FIG. 7).
To obtain biotinylated BPI, the synthesized EGAD BPI was biotinylated with NHS-Biotin as described in Murray et al., 24 Eur. J. Immunol. 2337-2344 (1994). Spleen cell density-gradient fractions from normal (unimmunized) NOD, BALB/c and other MHC congenic strains were incubated in round bottom 96-well plates with increasing concentrations of individual biotinylated peptides at 37° C., 5% CO2 for 16 hours. Following binding of the BPI to the APC, Avidin-FITC was incubated with the cells on ice for 30 minutes, followed bybiotinylated anti-Avidin for 1 hour, then again with Avidin-FITC. For BPI titrations, increasing concentrations (0.1-100 μM) of the biotinylated derivatives in sterile 0.5% BSA-PBS were incubated with the APC for 16 hours as above. Three-color analyses used Cy-Chrome or PE-conjugated anti-B220 (mAb RA3-6B2 (CD45R B-cell marker), anti-MHC class II (KH74 or 10-3.62 mAb), or anti-ICAM-1 (3E2 mAb); (all purchased from PharMingen, San Diego, Calif.). Bound peptide was detected with avidin-FITC/biotinylated anti-avidin/avidin-FITC on live cells gated by forward/side scatter analysis. Controls contained all detecting reagents in absence of the biotinylated peptide; 20,000 events were analyzed for each histogram with a FACScan (Becton-Dickinson) flow cytometer.
To verify antigenic peptide binding to live APC, initial EGAD-BPI were screened for selective binding to NOD (I-A^g7) APC and assayed for simultaneous binding using monoclonal antibodies against either MHC-II or ICAM-1 by flow cytometry methods using live APC (Murray et al., 24 Eur. J. Immunol. 2337-2344 (1994); Murray; 19 Immunology Today 157-163; and Schountz et al., 157 The Journal of Immunology 3893-3901 (1996)). In this assay, increasing concentrations of the biotinylated-BPI, -CD11a(237-247) or -GAD65(208-217) peptide were incubated overnight with spleenocytes from each inbred strain. Bound peptide was detected with amplification of avidin-FITC fluorescence by the use of a biotinylated anti-avidin reagent, followed by a second round of avidin-FITC binding. Biotinylated peptide was incubated with 10^6 viable cells at a peptide concentrations of 50 μM. Bound peptide was detected with avidin-FITC/biotinylated anti-avidin-FITC. […]

[2] = test system: MHC-II and ICAM-1 on NOD spleenocytes; assay: Inhibition of biotinylated BPI binding to NOD spleenocytes by monoclonal antibodies to MHC-II or ICAM-1; set-up: species or system mouse; details: mAb 10-3.62 or 3E2 at 5 μg/ml
Protocol: (§1) Specifically, it was verified that the peptide binds to MHC molecules on live APC. Briefly, spleen cell density-gradient fractions (from mice), or PBL, or APC lines (from humans) were incubated in round bottom 96-well plates with increasing concentrations of individual biotinylated peptides at 37° C., 5% CO2 for 16 hours. Following binding of the BPI to the APC, Avidin-FITC was incubated with the cells on ice for 30 minutes, followed by biotinylated anti-Avidin for 1 hour, then again with Avidin-FITC. For BPI titrations, increasing concentrations (0.1-100 μM) of the biotinylated derivatives in sterile 0.5% BSA-PBS were incubated with the APC for 16 hours as above. […] Three-color analyses used Cy-Chrome or PE-conjugated antibodies to known surface markers of APC that were commercially available. Avidin-FITC and biotinylated anti-Avidin detection of the bound peptide was as previously described in Murray et al., 24 Eur. J. Immunol. 2337-2344 (1994); Murray; 19 Immunology Today 157-163; and Schountz et al., 157 The Journal of Immunology 3893-3901 (1996). […]
However, either purified 10-3.62 (anti-MHC-II) or 3E2 (anti-ICAM-1) were included in the overnight incubation of the spleen cells with the biotinylated BPI. […] Analyses were gated on forward/side scatter dotplots for live lymphocytes and 20,000 events were analyzed for each histogram.

[3] = test system: MHC-II and ICAM-1 molecules on the APC surface; assay: Co-capping of ICAM-1 with MHC-II on APC from i.v. treated NOD mice (fluorescence microscopy); format: cell-based, mouse; details: T-depleted spleenocytes from NOD mice 16 hours after i.v. injection of 40 nanomoles; bio-10-3.62/streptavidin
Protocol: as §1, with “Immunol.” for “Immunol. 2337-2344 (1994); Murray; 19 Immunology Today 157-163; and Schountz et al., 157 The Journal of Immunology 3893-3901 (1996).”
Further support for simultaneous binding of the BPI to MHC-II and ICAM-1 molecules has been observed in co-capping experiments using biotinylated mAb 10-3.62 and streptavidin to cap MHC-II in the presence or absence of the BPI. […] The cells are plated and observed for evidence that a given BPI links ICAM-1 into the MHC-II cap, i.e., by standard fluorescence microscopy and image analysis.

NOD.Scid mice = assay: NOD.Scid adoptive transfer model of diabetes progression (blood glucose); format: in vivo, mouse; details: 7 weeks post adoptive transfer; CD4+ T-cells from treated mice co-transferred with CD25-depleted inducer cells
Protocol: In another example which tested the diabetes BPI in vivo, 15 million disease-linked lymphocytes (i.e., patient T-cells, or T-cell populations linked to the disease process) were injected with or without T-cells that received the BPI compound (in vivo or in vitro) and were expanded for 24 hours in recombinant IL-2. […] For blocking spontaneous diabetes, five groups of ten female NOD mice (12 weeks of age) were used and monitored for nondiabetic blood glucose levels with a standard glucometer (AccuChek-complete, Roche Diagnostic). Each mouse was labeled and individually monitored for blood glucose levels weekly for the course of the experiment. The five groups received either (a) intravenous (i.v.) injection of the BPI (100 μg in 100 μl endotoxin-free saline/injection) at 8 weeks of age, (b) same dose GAD65 (208-217) epitope alone, (c) same dose CD11a (237-247) peptide alone, or (d) saline alone.
NOD spleen cells from 8 week (non-diabetic) females were used to enrich a CD25-/CTLA4-depleted population by treatment with purified monoclonal antibody (mAb 7D4, PharMingen) followed by low-tox rabbit complement (Cedarlane) (80% depletion of CTLA4+ cells by flow analysis with PE-labeled UC10-4F10-11 mAb; not shown). […] In vitro clonal expansion was with either recombinant IL-2 (R&D systems), or ConA, as described for the ELISPOT experiments. […]

GAD65(208-217)-[Ac-G-Ac-G-Ac]-CD11a (237-247) (EIAPVFVLLE[Ahx]G[Ahx]G[Ahx]ITDGEATDSG) [EGAD-BPI]
percentage of high-density binding cells ([1]; A.BY spleenocytes): 6%
percentage of high-density binding cells ([1]; NOD spleenocytes): 30%
preferential binding to NOD APC compared with other strains (BALB/c, A.SW, A.BY) [1]: higher density
preferential binding to NOD APC compared with other strains (BALB/c, A.SW, A.BY) ([1]; listed as GAD 65 BPI): binds preferentially to NOD APC
BPI binding in presence of monoclonal antibody to MHC-II or ICAM-1 [2]: effectively block binding
BPI binding in presence of monoclonal antibody to MHC-II or ICAM-1 ([2]; listed as BPI): blocked BPI binding
co-capping of ICAM-1 with MHC-II [3]: exhibited co-capping of ICAM-1 with MUC-II; also recorded: ICAM-1 was co-capped with MHC-II
mice showing hyperglycemia and progression to diabetes (NOD.Scid mice): 40%
